Experiments:
[1] = tested on: Venturia inaequalis; test: Spore germination test; type: cell-based; conditions: VI, 48 hours
Protocol: VI = Venturia inaequalis
The test chemical was dissolved or suspended in acetone in an amount such that 0.8 ml of the resulting suspension or solution, mixed with 40 ml water agar produced a water agar solution containing 40, 10, 2.5 and 1 ppm of test chemical. The resulting agar solution, at 50° C., was then divided equally between two sterile petri dishes, each having four separated quadrants, and allowed to solidify. […] quadrants of each dish were flooded with 0.1 ml of a spore suspension in sterile water. Spores of two pathogens, Erysiphe polygoni and Uromyes phaseoli, from infected plant leaves, were brushed on the remaining two quadrants. The tests were then incubated 48 hours, at 24° C.
Readings were then taken and the percentage of germinated spores calculated. From this percentage, a spore germination rating was assigned as follows: […]

[2] = tested on: Pythium ultimum; test: Mycelial growth test; type: cell-based; conditions: PU; for inhibition at 5 ppm / inhibition at 10 ppm / inhibition at 20 ppm / inhibition at 40 ppm: Globisporangium ultimum, 72 h, read-out: Percent Fungus Growth Inhibition
[3] = tested on: Uromyces phaseoli; test: whole plant or invertebrate; conditions: foliar, 24 h, read-out: Percent Disease Control, curative, bean rust

| Structure (SMILES) | Spore Germination Rating ([1]; 1.0 ppm) | Spore Germination Rating ([1]; 2.5 ppm) | Spore Germination Rating ([1]; 10 ppm) | Spore Germination Rating ([1]; 40 ppm) | inhibition at 5 ppm [2] [%] | inhibition at 10 ppm [2] [%] | inhibition at 20 ppm ([2]; 20 ppm) [%] | inhibition at 40 ppm [2] [%] | pest or weed control at 150 ppm [3] [%] | Percent Fungus Growth Inhibition ([2]; 20 ppm, 72 hours) [%] |
| --- | --- | --- | --- | --- | --- | --- | --- | --- | --- | --- |
| N#Cc1ccc(Oc2nsnc(Cl)c2=O)cc1 [Compound 10, 3-chloro-5-(4-cyanophenoxy)-4H--1,2,6-thiadiazin-4-one] | 0 (0-10) | 0 (0-10) | 0 (0-10) | 0 (0-10) | 11 | 24 | 42 | 64 | 0 |  |
| O=c1c(Cl)nsnc1Oc1ccc(F)cc1 [Compound 11, 3-chloro-5-(4-fluorophenoxy)-4H--1,2,6-thiadiazin-4-one] | 4 (80-100) | 1 (10-40) | 0 (0-10) | 0 (0-10) | 0 | 18 | 82 | 100 | 0 |  |
| O=c1c(Cl)nsnc1Oc1ccc(Cl)cc1 [Compound 12, 3-chloro-5-(4-chlorophenoxy)-4H--1,2,6-thiadiazin-4-one] | 1 (10-40) | 0 (0-10) | 0 (0-10) | 0 (0-10) | 42 | 100 | 100 | 100 | 0 |  |
| O=c1c(Cl)nsnc1Oc1cccc(Cl)c1 [Compound 13, 3-chloro-5-(3-chlorophenoxy)-4H--1,2,6-thiadiazin-4-one] | 1 (10-40) | 0 (0-10) | 0 (0-10) | 0 (0-10) | 31 | 73 | 89 | 100 | 90 |  |
| O=c1c(Cl)nsnc1Oc1ccccc1Cl [Compound 14, 3-chloro-5-(2-chlorophenoxy)-4H--1,2,6-thiadiazin-4-one] | 0 (0-10) | 0 (0-10) | 0 (0-10) | 0 (0-10) | 31 | 53 | 100 | 100 | 100 |  |
| O=c1c(Cl)nsnc1Oc1ccc(Br)cc1 [Compound 15, 3-chloro-5-(4-bromophenoxy)-4H--1,2,6-thiadiazin-4-one] | 0 (0-10) | 0 (0-10) | 0 (0-10) | 0 (0-10) | 47 | 76 | 80 | 76 | 90 |  |
| O=c1c(Cl)nsnc1Oc1ccc(Cl)c(Cl)c1 [Compound 16, 3-chloro-5-(3,4-dichlorophenoxy)-4H--1,2,6-thiadiazin-4-one] | 0 (0-10) | 0 (0-10) | 0 (0-10) | 0 (0-10) | 7 | 11 | 47 | 56 | 0 |  |
| O=c1c(Cl)nsnc1Oc1ccc(Cl)cc1Cl [Compound 17, 3-chloro-5-(2,4-dichlorophenoxy)-4H--1,2,6-thiadiazin-4-one] | 0 (0-10) | 0 (0-10) | 0 (0-10) | 0 (0-10) | 42 | 80 | 100 | 100 | 100 |  |
| O=c1c(Cl)nsnc1Oc1c(Cl)cccc1Cl [Compound 18, 3-chloro-5-(2,6-dichlorophenoxy)-4H--1,2,6-thiadiazin-4-one] | 1 (10-40) | 0 (0-10) | 0 (0-10) | 0 (0-10) | 13 | 60 | 100 | 100 | 0 |  |
| O=c1c(Cl)nsnc1Oc1cccc(Cl)c1Cl [Compound 19, 3-chloro-5-(2,3-dichlorophenoxy)-4H--1,2,6-thiadiazin-4-one] | 1 (10-40) | 0 (0-10) | 0 (0-10) | 0 (0-10) | 20 | 80 | 100 | 100 | 100 |  |
| O=c1c(Cl)nsnc1Oc1cc(Cl)cc(Cl)c1 [Compound 20, 3-chloro-5-(3,5-dichlorophenoxy)-4H--1,2,6-thiadiazin-4-one] | 0 (0-10) | 0 (0-10) | 0 (0-10) | 0 (0-10) | 53 | 91 | 91 | 100 | 0 |  |
| Cc1cccc(Oc2nsnc(Cl)c2=O)c1 [Compound 21, 3-chloro-5-(3-methylphenoxy)-4H--1,2,6-thiadiazin-4-one] | 4 (80-100) | 3 (60-80) | 0 (0-10) | 0 (0-10) | 27 | 33 | 100 | 100 | 0 |  |
| Cc1ccccc1Oc1nsnc(Cl)c1=O [Compound 22, 3-chloro-5-(2-methylphenoxy)-4H--1,2,6-thiadiazin-4-one] | 0 (0-10) | 0 (0-10) | 0 (0-10) | 0 (0-10) | 20 | 64 | 96 | 100 | 0 |  |
| Cc1ccc(Oc2nsnc(Cl)c2=O)c(C)c1 [Compound 23, 3-chloro-5-(2,4-dimethylphenoxy)-4H--1,2,6-thiadiazin-4-one] | 4 (80-100) | 3 (60-80) | 1 (10-40) | 0 (0-10) | 62 | 69 | 71 | 100 | 0 |  |
| Cc1cccc(C)c1Oc1nsnc(Cl)c1=O [Compound 24, 3-chloro-5-(2,6-dimethylphenoxy)-4H--1,2,6-thiadiazin-4-one] | 2 (40-60) | 0 (0-10) | 0 (0-10) | 0 (0-10) | 0 | 47 | 64 | 100 | 0 |  |
| Cc1cc(C)cc(Oc2nsnc(Cl)c2=O)c1 [Compound 25, 3-chloro-5-(3,5-dimethylphenoxy)-4H--1,2,6-thiadiazin-4-one] | 4 (80-100) | 0 (0-10) | 2 (40-60) | 0 (0-10) | 0 | 47 | 100 | 100 | 0 |  |
| Nc1ccc(Oc2nsnc(Cl)c2=O)cc1 [Compound 26, 5-(4-aminophenoxy)-3-chloro-4H--1,2,6-thiadiazin-4-one] | 4 (80-100) | 4 (80-100) | 4 (80-100) | 1 (10-40) | 0 | 0 |  | 100 | 0 | 13 |
| CNC(=O)Nc1ccc(Oc2nsnc(Cl)c2=O)cc1 [Compound 28, 3-chloro-5-[4-(3-methylureido)-phenoxy]-4H--1,2,6-thiadiazin-4-one] | 4 (80-100) | 4 (80-100) | 2 (40-60) | 3 (60-80) | 0 | 80 | 91 | 100 | 0 |  |
